Measured values reported in patent US11352365B2, “Biased potent opioid-like agonists as improved medications to treat chronic and acute pain and methods of using the same” (THE UNITED STATES OF AMERICA, AS REPRESENTED BY THE …, priority 2018, dated 2022).
Like-named read-outs stand apart in the source and are kept apart here.

Tests used:
κ opioid receptor = target: T1, κ opioid receptor (Rattus norvegicus, UniProt P34975); assay: Binding assay, 3H U69,593, rat tissue
T1 construct: from tissue; host or cells: rat tissue (per the earlier reading)
T1 sequence (P34975 whole entry): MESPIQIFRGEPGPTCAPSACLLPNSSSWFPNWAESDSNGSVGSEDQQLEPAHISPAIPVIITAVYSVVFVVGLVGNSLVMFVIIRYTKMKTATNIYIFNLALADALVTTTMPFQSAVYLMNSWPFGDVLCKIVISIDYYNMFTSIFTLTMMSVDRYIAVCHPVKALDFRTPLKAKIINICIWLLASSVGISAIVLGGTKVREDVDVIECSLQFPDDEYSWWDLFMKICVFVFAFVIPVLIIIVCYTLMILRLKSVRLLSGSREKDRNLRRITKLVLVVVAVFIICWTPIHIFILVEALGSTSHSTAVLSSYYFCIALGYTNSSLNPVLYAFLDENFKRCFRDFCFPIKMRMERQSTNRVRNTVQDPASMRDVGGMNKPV

MOR [1] = target: T2, MOR (Homo sapiens, UniProt P35372); assay: cell-based; assay type: cell-based; set-up: expressed in transfected cells; host or cells: CHO-hMOR (membrane variant); SH-SY5Y-hMOR also named
T2 sequence (P35372 whole entry): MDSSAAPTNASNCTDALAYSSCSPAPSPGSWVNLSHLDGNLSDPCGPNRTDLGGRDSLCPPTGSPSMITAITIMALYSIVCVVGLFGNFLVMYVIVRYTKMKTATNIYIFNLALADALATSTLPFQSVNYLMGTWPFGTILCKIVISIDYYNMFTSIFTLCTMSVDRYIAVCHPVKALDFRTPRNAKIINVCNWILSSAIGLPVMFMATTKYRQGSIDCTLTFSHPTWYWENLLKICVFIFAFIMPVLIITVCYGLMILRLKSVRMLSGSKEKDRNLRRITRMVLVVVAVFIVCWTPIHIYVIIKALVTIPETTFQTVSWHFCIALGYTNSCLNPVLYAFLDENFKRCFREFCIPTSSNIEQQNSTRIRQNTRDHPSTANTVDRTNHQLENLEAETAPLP
Protocol: Four thousand cells per well were split into 384-well low-volume plate (VWR) with Opti-MEM (Invitrogen) supplemented with 1% FBS for 3 hours at 37° C. except SH-SY5Y-hMOR cells, which were plated for 1 hour at 37° C. Cells were then treated with drugs, […] forskolin for 30 min at room temperature.
Cells were then homogenized by a Dounce homogenizer 15 times in an ice-cold buffer [50 mM Hepes (pH 7.4)], followed by centrifugation at 500 g at 4° C. for 5 min. The supernatant was transferred to a 1.5-ml tube on ice, and the pellet was resuspended, homogenized, and centrifuged at 500 g at 4° C. for 5 min. Then, the supernatant was combined and spun at 20,000 g at 4° C. for 10 min. The membrane pellet was resuspended in an ice-cold buffer [50 mM Hepes (pH 7.4)] at concentrations of […]. Membranes were stored at −80° C. until use. For forskolin-stimulated cAMP accumulation assay, membranes were diluted in an assay buffer (50 mM Hepes, 10 mM MgCl2, 100 mM NaCl, 200 mM adenosine 5′-triphosphate, 10 mM GTP, 100 mM 3-isobutyl-1-methylxanthine, 20 mM forskolin, and 30 mM bovine serum albumin) and plated at […] of protein in each well. Membranes were treated with test compounds for 30 min at room temperature. The cAMP levels were determined as per the manufacturer's instructions (Cisbio cAMP HiRange assay).

MOR [2] = target: T2, MOR; assay: cell-based; assay type: cell-based; set-up: host or cells: U2OS-β-arrestin2-EFC-hMOR
Protocol: The PathHunter β-arrestin assay. The assay was performed according to the manufacturer's protocol (DiscoveRx) and as described previously. Briefly, 5000 U2OS-β-arrestin2-EFC-hMOR cells were plated in 384-well white plates with Opti-MEM media (Invitrogen) containing 1% FBS±pertussis toxin (100 ng/ml) overnight. The next day, cells were treated with compounds for 90 min at 37° C., followed by a 1-hour incubation of detection reagent at room temperature. Luminescence values were determined by using a Synergy HT luminometer (BioTek).

δ opioid receptor = target: T3, δ opioid receptor (Rattus norvegicus, UniProt P33533); assay: Binding assay, 3H DADLE, rat tissue; conditions: 100 nM concentration
T3 construct: from tissue; host or cells: rat tissue (per the earlier reading)
T3 sequence (P33533 whole entry): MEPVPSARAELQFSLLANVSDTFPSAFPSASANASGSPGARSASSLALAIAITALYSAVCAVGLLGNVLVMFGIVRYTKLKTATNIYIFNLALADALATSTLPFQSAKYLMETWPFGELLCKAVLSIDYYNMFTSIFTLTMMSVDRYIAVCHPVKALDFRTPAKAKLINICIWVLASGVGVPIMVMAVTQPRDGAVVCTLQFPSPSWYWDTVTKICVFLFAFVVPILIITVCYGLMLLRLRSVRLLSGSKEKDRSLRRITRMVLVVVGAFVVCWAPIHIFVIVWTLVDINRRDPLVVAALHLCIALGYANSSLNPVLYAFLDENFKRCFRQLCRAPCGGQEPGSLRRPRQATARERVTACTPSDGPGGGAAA

μ opioid receptor = μ opioid receptor (Rattus norvegicus, UniProt P33535); conditions: read-out: 3H DAMGO μ Ki ± SEM; rat tissue, triplicate
Sequence of μ opioid receptor (P33535 whole entry): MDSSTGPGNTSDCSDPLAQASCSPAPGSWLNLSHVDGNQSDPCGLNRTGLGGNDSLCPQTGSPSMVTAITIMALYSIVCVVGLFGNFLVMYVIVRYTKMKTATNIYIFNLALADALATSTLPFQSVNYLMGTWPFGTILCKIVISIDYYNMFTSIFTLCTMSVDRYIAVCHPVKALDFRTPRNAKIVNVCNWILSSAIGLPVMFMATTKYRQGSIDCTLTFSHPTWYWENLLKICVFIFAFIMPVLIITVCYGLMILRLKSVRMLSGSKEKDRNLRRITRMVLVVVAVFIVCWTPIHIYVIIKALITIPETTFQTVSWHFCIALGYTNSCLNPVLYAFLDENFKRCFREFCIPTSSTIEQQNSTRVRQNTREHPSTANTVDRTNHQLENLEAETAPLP

## 3-((1S,5R,9R)-9-(2-hydroxyethyl)-2-phenethyl-2-azabicyclo[3.3.1]nonan-5-yl)phenol [Compound 9]
κ opioid receptor; 100 nM concentration, rat tissue
  3H U69,593 κ activity in exploratory assay: I (<50% activity at 100 nM concentration (displaced less than half of radioligand) in exploratory assay)
κ opioid receptor; in vitro data
  interaction with the kappa-receptor (in words): does not interact with the kappa-receptor
MOR [1]; Table 1
  MOR cAMP Agonist (% Efficacy): (64 ± 2%)
MOR [1]; Table 1, read-out: MOR cAMP Agonist Potency ± SEM
  EC50: 4.7 ± 0.5 nM
MOR [1]; in vitro data
  agonist character at the mu-receptor (in words): less potent partial agonist
MOR [2]
  beta-arrestin recruitment (in words): do not
MOR [2]; Table 1, read-out: MOR Mediated β-arrestin Recruitment
  EC50: > 25000 nM
δ opioid receptor
  3H DADLE δ activity in exploratory assay: I (<50% activity at 100 nM concentration (displaced less than half of radioligand) in exploratory assay)
μ opioid receptor
  Ki: 5.43 ± 0.09 nM
